Laboratory results: patent US11970474B2, “Substituted benzodiazoles and use thereof in therapy” (THOMAS HELLEDAYS STIFTELSE FÖR MEDICINSK FORSKNING, priority 2018, dated 2024)
Like-named read-outs stand apart in the source and are kept apart here.

Experiments:
[1] = molecular target: OGG1 (Homo sapiens (Human), UniProt O15527); assay: In vitro OGG1 activity assay; assay type: biochemical; details: 800 pM OGG1 enzyme, 2 nM human APEX1, 10 nM 8-oxoA:C substrate
Method in brief: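 Read-out is fluorescein fluorescence, with compounds in DMSO added first, then enzyme and substrate. OGG1 excises its substrate base from a quenched fluorophore-labelled duplex, and surplus APEX1 cuts the resulting apurinic site. The duplex then melts and fluorescence rises in proportion to glycosylase activity.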

[2] = test system: MLE12 cells; assay: Cell viability assay in MLE12 cells (resazurin); assay type: cell-based, mouse; details: TNF-α 20 ng/ml, resazurin added after 24 hours culture
Method in brief: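 MLE12 cells (7500 cells/well) were seeded onto 11-point duplicate compound dose-responses, with TNF-α (final 20 ng/ml) added after 1 hour at 37° C. After 24 hours, resazurin was added for 6 hours and resorufin fluorescence read (ex544 nm/em595 nm). EC50 values were calculated by curve fitting.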

[3] = test system: CCL2; assay: Mouse CCL2 assay in MLE12 cells; assay type: cell-based
Method in brief: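 CCL2 in supernatants was quantified by two-antibody HTRF FRET, read at 620 and 665 nm after overnight RT incubation, with IC50 derived from delta ratios. Cells were SV40-transformed mouse MLE12, treated with duplicate 6-point compound series for 1 h before 30 h TNF-α (20 ng/ml final) stimulation.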

[4] = Mus musculus, MLE12, 30 h, MLE12 cells, TNF-α 20 ng/ml, supernatant after 30 hours, HTRF, read-out: CCL2 (EC50)
[5] = Mus musculus, MLE12, 30 h, read-out: CCL2 (EC50, nM)

Sequence of OGG1 (O15527 whole entry): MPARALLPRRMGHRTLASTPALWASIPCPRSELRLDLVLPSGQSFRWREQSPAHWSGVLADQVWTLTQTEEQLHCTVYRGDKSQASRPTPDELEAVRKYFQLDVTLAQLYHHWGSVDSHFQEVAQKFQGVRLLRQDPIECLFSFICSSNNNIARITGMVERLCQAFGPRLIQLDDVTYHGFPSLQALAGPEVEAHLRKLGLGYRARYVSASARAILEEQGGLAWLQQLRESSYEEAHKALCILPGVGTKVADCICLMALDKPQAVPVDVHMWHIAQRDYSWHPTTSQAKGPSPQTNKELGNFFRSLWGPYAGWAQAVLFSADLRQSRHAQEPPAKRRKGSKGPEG

SMILES	IC50 [1] [µM]	EC50 [3, 4] [nM]	EC50 ([3]; MLE12 cells, TNF-α 20 ng/ml, supernatant after 30 hours, HTRF, read-out: CCL2 (EC50)) [nM]	IC50 ([2]; Mus musculus, MLE12, 24 h) [µM]	IC50 [2] [µM]	IC50 ([2]; Mus musculus) [µM]	EC50 [3, 5] [nM]
COc1ccc(NC(=O)[C@H]2CC[C@@H](n3c(=O)[nH]c4c(Br)cccc43)CC2)cc1OC [Example 192, Cis-4-(4-bromo-2-oxo-2,3-dihydro-1H-1,3-benzodiazol-1-yl)-N-(3,4-dimethoxyphenyl)cyclohexane-1-carboxamide]	0.0342	32900	–	15.7	–	–	–
COc1cccc2c1[nH]c(=O)n2[C@H]1CC[C@@H](C(=O)Nc2ccc3cc[nH]c3c2)CC1 [Example 209, Cis-N-(1H-indol-6-yl)-4-(4-methoxy-2-oxo-2,3-dihydro-1H-1,3-benzodiazol-1-yl)cyclohexane-1-carboxamide]	0.402	34900	–	21.5	–	–	–
COc1cc(NC(=O)[C@H]2CC[C@@H](n3c(=O)[nH]c4c(C(=O)NCCN5CCOCC5)cccc43)CC2)ccc1C [Example 272, N-[2-(Morpholin-4-yl)ethyl]-2-oxo-1-[cis-4-[(3-methoxy-4-methylphenyl)carbamoyl]cyclohexyl]-2,3-dihydro-1H-1,3-benzodiazole-4-carboxamide]	0.00411	35700	–	27.1	–	–	–
COc1cc(NC(=O)N2C3CCC2CC(n2c(=O)[nH]c4c(Br)cccc42)C3)ccc1C (stereo not drawn) [Example 85, 3-(4-Bromo-2-oxo-2,3-dihydro-1H-1,3-benzodiazol-1-yl)-N-(3-methoxy-4-methylphenyl)-(endo)-8-azabicyclo[3.2.1]octane-8-carboxamide]	0.033	–	–	–	–	17.2	39200
COCC(=O)Nc1cccc2c1[nH]c(=O)n2[C@H]1CC[C@@H](C(=O)Nc2ccc(C)c(OC)c2)CC1 [Example 250, Cis-N-(3-methoxy-4-methylphenyl)-4-[4-(2-methoxyacetamido)-2-oxo-2,3-dihydro-1H-1,3-benzodiazol-1-yl]cyclohexane-1-carboxamide]	0.0235	39900	–	26	–	–	–
O=C(Nc1ccc(Cl)c(Cl)c1)N1C2CCC1CC(n1c(=O)[nH]c3c(Br)cccc31)C2 (stereo not drawn) [Example 72, 3-(4-Bromo-2-oxo-2,3-dihydro-1H-1,3-benzodiazol-1-yl)-N-(3,4-dichlorophenyl)-(endo)-8-azabicyclo[3.2.1]octane-8-carboxamide]	0.067	–	–	–	–	6.31	21500
COc1cc(NC(=O)[C@H]2CC[C@@H](n3c(=O)[nH]c4c(N(C)CCCNC(=O)OC(C)(C)C)cccc43)CC2)ccc1C [Example 305, tert-Butyl N-{3-[methyl({2-oxo-1-[cis-4-[(3-methoxy-4-methylphenyl)carbamoyl]cyclohexyl]-2,3-dihydro-1H-1,3-benzodiazol-4-yl})amino]propyl}carbamate]	0.251	8110	–	4.88	–	–	–
Cc1cc(NC(=O)N2C3CCC2CC(n2c(=O)[nH]c4c(Br)cccc42)C3)ccc1I (stereo not drawn) [Example 84, 3-(4-Bromo-2-oxo-2,3-dihydro-1H-1,3-benzodiazol-1-yl)-N-(4-iodo-3-methylphenyl)-(endo)-8-azabicyclo[3.2.1]octane-8-carboxamide]	0.03	–	–	–	–	8.14	23900
COc1cc(NC(=O)[C@H]2CC[C@@H](n3c(=O)[nH]c4c(C(=O)N(C)C5CCN(C)C5)cccc43)CC2)ccc1C (stereo partly drawn) [Example 277, N-Methyl-N-(1-methylpyrrolidin-3-yl)-2-oxo-1-[cis-4-[(3-methoxy-4-methylphenyl)carbamoyl]cyclohexyl]-2,3-dihydro-1H-1,3-benzodiazole-4-carboxamide]	0.0482	28600	–	15	–	–	–
COc1ccc(NC(=O)[C@H]2CC[C@@H](n3c(=O)[nH]c4c(OC)cccc43)CC2)cc1C [Example 206, Cis-4-(4-methoxy-2-oxo-2,3-dihydro-1H-1,3-benzodiazol-1-yl)-N-(4-methoxy-3-methylphenyl)cyclohexane-1-carboxamide]	0.0154	33700	–	26.7	–	–	–
COc1ccc(NC(=O)[C@H]2CC[C@@H](n3c(=O)[nH]c4c(F)cccc43)CC2)cc1C [Example 212, Cis-4-(4-fluoro-2-oxo-2,3-dihydro-1H-1,3-benzodiazol-1-yl)-N-(4-methoxy-3-methylphenyl)cyclohexane-1-carboxamide]	0.00943	34200	–	16.9	–	–	–

The remaining compounds from weak to strong by IC50 [1], led by results:

IC50 [1] [µM]	EC50 [3, 4] [nM]	EC50 ([3]; MLE12 cells, TNF-α 20 ng/ml, supernatant after 30 hours, HTRF, read-out: CCL2 (EC50)) [nM]	SMILES	IC50 ([2]; Mus musculus, MLE12, 24 h) [µM]	IC50 [2] [µM]	IC50 ([2]; Mus musculus) [µM]	EC50 [3, 5] [nM]
0.383	44000	–	Cc1ccc(NC(=O)[C@H]2CC[C@@H](n3c(=O)[nH]c4c(Br)cccc43)CC2)c(F)c1 [Example 153, (Cis)-4-(4-bromo-2-oxo-2,3-dihydro-1H-1,3-benzodiazol-1-yl)-N-(2-fluoro-4-methylphenyl)cyclohexane-1-carboxamide]	24.6	–	–	–
0.338	13000	–	Cc1cc(NC(=O)[C@H]2CC[C@@H](n3c(=O)[nH]c4c(Br)cccc43)CC2)cnc1Cl [Example 187, Cis-4-(4-bromo-2-oxo-2,3-dihydro-1H-1,3-benzodiazol-1-yl)-N-(6-chloro-5-methylpyridin-3-yl)cyclohexane-1-carboxamide]	7.9	–	–	–
0.223	34100	39400	COc1cc(NC(=O)N2CCC(n3c(=O)[nH]c4c(Br)cccc43)CC2)ccc1C [Example 75, 4-(4-Bromo-2-oxo-2,3-dihydro-1H-1,3-benzodiazol-1-yl)-N-(3-methoxy-4-methylphenyl)piperidine-1-carboxamide]	10.4	12.8	–	–
0.149	8820	–	COc1cc(NC(=O)[C@H]2CC[C@@H](n3c(=O)[nH]c4c(N5CCC(NC(=O)OC(C)(C)C)C5)cccc43)CC2)ccc1C (stereo partly drawn) [Example 281, tert-Butyl N-(1-{2-oxo-1-[cis-4-[(3-methoxy-4-methylphenyl)carbamoyl]cyclohexyl]-2,3-dihydro-1H-1,3-benzodiazol-4-yl}pyrrolidin-3-yl)carbamate]	1.83	–	–	–
0.072	17700	–	O=c1[nH]c2c(Br)cccc2n1[C@H]1CC[C@@H](C(=O)Nc2ccc(Cl)cc2)CC1 [Example 119, (Cis)-4-(4-bromo-2-oxo-2,3-dihydro-1H-1,3-benzodiazol-1-yl)-N-(4-chlorophenyl)cyclohexane-1-carboxamide]	5.07	–	–	–
0.0671	31700	–	COc1cc(NC(=O)[C@H]2CC[C@@H](n3c(=O)[nH]c4c(S)cccc43)CC2)ccc1C [Example 237, Cis-N-(3-methoxy-4-methylphenyl)-4-(2-oxo-4-sulfanyl-2,3-dihydro-1H-1,3-benzodiazol-1-yl)cyclohexane-1-carboxamide]	4.54	–	–	–
0.0656	12900	–	O=c1[nH]c2c(Br)cccc2n1[C@H]1CC[C@@H](C(=O)Nc2ccc3ncccc3c2)CC1 [Example 204, Cis-4-(4-bromo-2-oxo-2,3-dihydro-1H-1,3-benzodiazol-1-yl)-N-(quinolin-6-yl)cyclohexane-1-carboxamide]	7.93	–	–	–
0.058	31800	–	Cc1ccc(NC(=O)[C@H]2CC[C@@H](n3c(=O)[nH]c4c(Br)cccc43)CC2)cc1 [Example 139, (Cis)-4-(4-bromo-2-oxo-2,3-dihydro-1H-1,3-benzodiazol-1-yl)-N-(4-methylphenyl)cyclohexane-1-carboxamide]	10.1	–	–	–
0.0516	13600	–	COc1cc(NC(=O)[C@H]2CC[C@@H](n3c(=O)[nH]c4c(N5CCCC5)cccc43)CC2)ccc1C [Example 310, Cis-N-(3-methoxy-4-methylphenyl)-4-[2-oxo-4-(pyrrolidin-1-yl)-2,3-dihydro-1H-1,3-benzodiazol-1-yl]cyclohexane-1-carboxamide]	6.13	–	–	–
0.026	24200	–	COc1ccc(NC(=O)[C@H]2CC[C@@H](n3c(=O)[nH]c4c(Br)cccc43)CC2)cc1Cl [Example 123, (Cis)-4-(4-bromo-2-oxo-2,3-dihydro-1H-1,3-benzodiazol-1-yl)-N-(3-chloro-4-methoxyphenyl)cyclohexane-1-carboxamide]	10	–	–	–
0.0099	2110	–	COc1cc(NC(=O)[C@H]2CC[C@@H](n3c(=O)[nH]c4c(NC(=O)c5cc(C)on5)cccc43)CC2)ccc1C [Example 300, 5-Methyl-N-{2-oxo-1-[cis-4-[(3-methoxy-4-methylphenyl)carbamoyl]cyclohexyl]-2,3-dihydro-1H-1,3-benzodiazol-4-yl}-1,2-oxazole-3-carboxamide]	1.58	–	–	–
0.00294	28500	–	COc1cc(NC(=O)[C@H]2CC[C@@H](n3c(=O)[nH]c4c(C5=CCN(C)CC5)cccc43)CC2)ccc1C [Example 312, Cis-N-(3-methoxy-4-methylphenyl)-4-[4-(1-methyl-1,2,3,6-tetrahydropyridin-4-yl)-2-oxo-2,3-dihydro-1H-1,3-benzodiazol-1-yl]cyclohexane-1-carboxamide]	11	–	–	–
